Results reported in US9005575B2, “Arg-Gly-Asp-conjugated alpha-melanocyte stimulating hormone hybrid peptide for use in diagnosing and treating melanoma, including metastatic melanoma and methods related to same” (STC.UNM, priority 2009, dated 2015).
Where two headings read alike, the source gives them in different places. Positions of bridges follow the written chain, without caps; N, C: chain ends. Non-standard residues stand in square brackets, D forms with d. Residues, ends and D or L forms follow the SMILES beside them.

Assay: Biodistribution in B16/F1 melanoma-bearing C57 mice
Format: in vivo
Conditions: female, C57, mouse, iv, total radioactivity
Method: All the animal studies were conducted in compliance with Institutional Animal Care and Use Committee approval. The pharmacokinetics of ^99mTc-RGD-Lys-(Arg^11)CCMSH was determined in B16/F1 melanoma-bearing C57 female mice (Harlan, Indianapolis, Ind.). C57 mice were subcutaneously inoculated on the right flank with 1×10^6 B16/F1 cells. The weight of tumors reached approximately 0.2 g 10 days post cell inoculation. Each melanoma-bearing mouse was injected with 0.037 MBq of ^99mTc-RGD-Lys-(Arg^11)CCMSH via the tail vein. Groups of 5 mice were sacrificed at 0.5, 2, 4 and 24 h post-injection, and tumors and organs of interest were harvested, weighed and counted. Blood values were taken as 6.5% of the whole-body weight. The MC1 receptor specificity of the tumor uptake was determined at 2 h post-injection by co-injecting ^99mTc-RGD-Lys-(Arg^11)CCMSH with 10 μg (6.1 nmol) of unlabeled NDP-MSH, a linear α-MSH peptide analogue with picomolar affinity for the MC1 receptors present on murine melanoma cells. The co-injection of 3.5 μg (6.1 nmol) of RGD peptide was performed to determine the αvβ3 integrin specificity of the tumor uptake 2 h post-injection. Statistical analysis was performed using the Student's t-test for unpaired data.
All the animal studies were conducted in compliance with Institutional Animal Care and Use Committee approval. The pharmacokinetics of ^99mTc-RGD-Arg-(Arg^11)CCMSH was determined in B16/F1 melanoma-bearing C57 female mice (Harlan, Indianapolis, Ind.). C57 mice were subcutaneously inoculated on the right flank with 1×10^6 B16/F1 cells. The weight of tumors reached approximately 0.2 g 10 days post cell inoculation. Each melanoma-bearing mouse was injected with 0.037 MBq of ^99mTc-RGD-Arg-(Arg^11)CCMSH via the tail vein. Groups of 5 mice were sacrificed at 0.5, 2, 4 and 24 h post-injection, and tumors and organs of interest were harvested, weighed and counted. Blood values were taken as 6.5% of the whole-body weight. The MC1 receptor specificity of the tumor uptake was determined at 2 h post-injection by co-injecting ^99mTc-RGD-Arg-(Arg^11)CCMSH with 10 μg (6.1 nmol) of unlabeled NDP-MSH. The co-injection of 3.5 μg (6.1 nmol) of RGD peptide was performed to determine the αvβ3 integrin specificity of the tumor uptake at 2 h post-injection.

For `CC(C)[C@H](NC(=O)[C@@H]1CCCN1C(=O)[C@H](CCCNC(=N)N)NC(=O)[C@H](CS)NC(=O)[C@H](Cc1c[nH]c2ccccc12)NC(=O)[C@H](CCCNC(=N)N)NC(=O)[C@@H](Cc1ccccc1)NC(=O)[C@H](Cc1c[nH]cn1)NC(=O)[C@H](CCC(=O)O)NC(=O)[C@H](CS)NC(=O)[C@H](CS)NC(=O)[C@H](CCCNC(=N)N)NC(=O)[C@@H]1CC(=O)N[C@@H](CCCNC(=N)N)C(=O)NCC(=O)N[C@@H](CC(=O)O)C(=O)N[C@H](Cc2ccc(O)cc2)C(=O)N1)C(N)=O` [^99mTc-RGD-Arg-(Arg^11)CCMSH, metal not drawn] (RGD[dY]DRCCEH[dF]RWCRPV-NH2; lactam N-5), the tissue uptake at 2 h (skin, 0.037 MBq, 2 h post-injection, read-out: Skin, Percentage Injected Dose/gram) was 1.29 ± 0.32 %ID/g, the tissue uptake at 4 h (skin, 0.037 MBq, 4 h post-injection, read-out: Skin, Percentage Injected Dose/gram) was 0.82 ± 0.22 %ID/g and the tissue uptake at 24 h (skin, 0.037 MBq, 24 h post-injection, read-out: Skin, Percentage Injected Dose/gram) was 0.75 ± 0.13 %ID/g. For the same molecule, the tissue uptake at 2 h (skin, 2 h post-injection, NDP blockade (10 μg NDP-MSH co-injected), read-out: Skin, Percentage Injected Dose/gram) was 1.26 ± 0.14 %ID/g, the tissue uptake at 2 h (skin, 2 h post-injection, RGD blockade (3.5 μg RGD co-injected), read-out: Skin, Percentage Injected Dose/gram) was 0.95 ± 0.38 %ID/g and the tissue uptake at 0.5 h (spleen, 0.037 MBq, 0.5 h post-injection, read-out: Spleen, Percentage Injected Dose/gram) was 2.73 ± 0.8 %ID/g. It also gave a tissue uptake at 2 h (spleen, 0.037 MBq, 2 h post-injection, read-out: Spleen, Percentage Injected Dose/gram) of 1.17 ± 0.57 %ID/g, a tissue uptake at 4 h (spleen, 0.037 MBq, 4 h post-injection, read-out: Spleen, Percentage Injected Dose/gram) of 1.75 ± 0.55 %ID/g and a tissue uptake at 24 h (spleen, 0.037 MBq, 24 h post-injection, read-out: Spleen, Percentage Injected Dose/gram) of 1.45 ± 0.37 %ID/g. For the same molecule, the tissue uptake at 2 h (spleen, 2 h post-injection, NDP blockade (10 μg NDP-MSH co-injected), read-out: Spleen, Percentage Injected Dose/gram) was 1.53 ± 0.12 %ID/g, the tissue uptake at 2 h (spleen, 2 h post-injection, RGD blockade (3.5 μg RGD co-injected), read-out: Spleen, Percentage Injected Dose/gram) was 0.67 ± 0.38 %ID/g and the tissue uptake at 0.5 h (stomach, 0.037 MBq, 0.5 h post-injection, read-out: Stomach, Percentage Injected Dose/gram) was 4.3 ± 1.78 %ID/g. It also gave a tissue uptake at 2 h (stomach, 0.037 MBq, 2 h post-injection, read-out: Stomach, Percentage Injected Dose/gram) of 2.75 ± 1.71 %ID/g, a tissue uptake at 4 h (stomach, 0.037 MBq, 4 h post-injection, read-out: Stomach, Percentage Injected Dose/gram) of 3.44 ± 0.83 %ID/g and a tissue uptake at 24 h (stomach, 0.037 MBq, 24 h post-injection, read-out: Stomach, Percentage Injected Dose/gram) of 0.47 ± 0.17 %ID/g. The tissue uptake at 2 h (stomach, 2 h post-injection, NDP blockade (10 μg NDP-MSH co-injected), read-out: Stomach, Percentage Injected Dose/gram) was 2.4 ± 0.49 %ID/g, the tissue uptake at 2 h (stomach, 2 h post-injection, RGD blockade (3.5 μg RGD co-injected), read-out: Stomach, Percentage Injected Dose/gram) was 2.03 ± 1.39 %ID/g and the Fold change in tumor/kidney uptake ratio versus ^99mTc-RGD-Lys-(Arg^11)CCMSH at 0.5 h (tumor and kidneys, 0.037 MBq, 0.5 h post-injection, read-out: Tumor/kidney uptake ratio, times that of ^99mTc-RGD-Lys-(Arg^11)CCMSH) was 2.38. The Fold change in tumor/kidney uptake ratio versus ^99mTc-RGD-Lys-(Arg^11)CCMSH at 2 h (tumor and kidneys, 0.037 MBq, 2 h post-injection, read-out: Tumor/kidney uptake ratio, times that of ^99mTc-RGD-Lys-(Arg^11)CCMSH) was 2.27, the Fold change in tumor/kidney uptake ratio versus ^99mTc-RGD-Lys-(Arg^11)CCMSH at 4 h (tumor and kidneys, 0.037 MBq, 4 h post-injection, read-out: Tumor/kidney uptake ratio, times that of ^99mTc-RGD-Lys-(Arg^11)CCMSH) was 2.44 and the tissue uptake at 0.5 h (tumor, 0.037 MBq, 0.5 h post-injection, read-out: Tumor, Percentage Injected Dose/gram) was 14.1 ± 2.42 %ID/g. The tissue uptake at 2 h (tumor, 0.037 MBq, 2 h post-injection, read-out: Tumor, Percentage Injected Dose/gram) was 21.4 ± 3.74 %ID/g, the tissue uptake at 4 h (tumor, 0.037 MBq, 4 h post-injection, read-out: Tumor, Percentage Injected Dose/gram) was 16.1 ± 2 %ID/g and the tissue uptake at 24 h (tumor, 0.037 MBq, 24 h post-injection, read-out: Tumor, Percentage Injected Dose/gram) was 6.81 ± 3.71 %ID/g. It also gave a tissue uptake at 2 h (tumor, 2 h post-injection, NDP blockade (10 μg NDP-MSH co-injected), read-out: Tumor, Percentage Injected Dose/gram) of 1.96 ± 0.71 %ID/g, a tissue uptake at 2 h (tumor, 2 h post-injection, RGD blockade (3.5 μg RGD co-injected), read-out: Tumor, Percentage Injected Dose/gram) of 16.9 ± 2.69 %ID/g and a tissue to tissue ratio at 0.5 h (tumor/blood, 0.037 MBq, 0.5 h post-injection, read-out: Uptake Ratio Tumor/Blood) of 3.87. For the same molecule, the tissue to tissue ratio at 2 h (tumor/blood, 0.037 MBq, 2 h post-injection, read-out: Uptake Ratio Tumor/Blood) was 38.9, the tissue to tissue ratio at 4 h (tumor/blood, 0.037 MBq, 4 h post-injection, read-out: Uptake Ratio Tumor/Blood) was 22.6 and the tissue to tissue ratio at 24 h (tumor/blood, 0.037 MBq, 24 h post-injection, read-out: Uptake Ratio Tumor/Blood) was 28.4. The tissue to tissue ratio at 2 h (tumor/blood, 2 h post-injection, NDP blockade (10 μg NDP-MSH co-injected), read-out: Uptake Ratio Tumor/Blood) was 4.17, the tissue to tissue ratio at 2 h (tumor/blood, 2 h post-injection, RGD blockade (3.5 μg RGD co-injected), read-out: Uptake Ratio Tumor/Blood) was 422 and the tissue to tissue ratio at 0.5 h (tumor/kidneys, 0.037 MBq, 0.5 h post-injection, read-out: Uptake Ratio Tumor/Kidneys) was 0.38. The tissue to tissue ratio at 2 h (tumor/kidneys, 0.037 MBq, 2 h post-injection, read-out: Uptake Ratio Tumor/Kidneys) was 0.5, the tissue to tissue ratio at 4 h (tumor/kidneys, 0.037 MBq, 4 h post-injection, read-out: Uptake Ratio Tumor/Kidneys) was 0.44 and the tissue to tissue ratio at 24 h (tumor/kidneys, 0.037 MBq, 24 h post-injection, read-out: Uptake Ratio Tumor/Kidneys) was 0.42. The tissue to tissue ratio at 2 h (tumor/kidneys, 2 h post-injection, NDP blockade (10 μg NDP-MSH co-injected), read-out: Uptake Ratio Tumor/Kidneys) was 0.06, the tissue to tissue ratio at 2 h (tumor/kidneys, 2 h post-injection, RGD blockade (3.5 μg RGD co-injected), read-out: Uptake Ratio Tumor/Kidneys) was 0.44 and the tissue to tissue ratio at 0.5 h (tumor/liver, 0.037 MBq, 0.5 h post-injection, read-out: Uptake Ratio Tumor/Liver) was 3.35. The tissue to tissue ratio at 2 h (tumor/liver, 0.037 MBq, 2 h post-injection, read-out: Uptake Ratio Tumor/Liver) was 5.98, the tissue to tissue ratio at 4 h (tumor/liver, 0.037 MBq, 4 h post-injection, read-out: Uptake Ratio Tumor/Liver) was 3.26 and the tissue to tissue ratio at 24 h (tumor/liver, 0.037 MBq, 24 h post-injection, read-out: Uptake Ratio Tumor/Liver) was 3.6. The tissue to tissue ratio at 2 h (tumor/liver, 2 h post-injection, NDP blockade (10 μg NDP-MSH co-injected), read-out: Uptake Ratio Tumor/Liver) was 0.68, the tissue to tissue ratio at 2 h (tumor/liver, 2 h post-injection, RGD blockade (3.5 μg RGD co-injected), read-out: Uptake Ratio Tumor/Liver) was 7.34 and the tissue to tissue ratio at 0.5 h (tumor/lung, 0.037 MBq, 0.5 h post-injection, read-out: Uptake Ratio Tumor/Lung) was 1.87. The tissue to tissue ratio at 2 h (tumor/lung, 0.037 MBq, 2 h post-injection, read-out: Uptake Ratio Tumor/Lung) was 10.4, the tissue to tissue ratio at 4 h (tumor/lung, 0.037 MBq, 4 h post-injection, read-out: Uptake Ratio Tumor/Lung) was 15.9 and the tissue to tissue ratio at 24 h (tumor/lung, 0.037 MBq, 24 h post-injection, read-out: Uptake Ratio Tumor/Lung) was 8.96. For the same molecule, the tissue to tissue ratio at 2 h (tumor/lung, 2 h post-injection, NDP blockade (10 μg NDP-MSH co-injected), read-out: Uptake Ratio Tumor/Lung) was 1.38, the tissue to tissue ratio at 2 h (tumor/lung, 2 h post-injection, RGD blockade (3.5 μg RGD co-injected), read-out: Uptake Ratio Tumor/Lung) was 13.9 and the tissue to tissue ratio at 0.5 h (tumor/muscle, 0.037 MBq, 0.5 h post-injection, read-out: Uptake Ratio Tumor/Muscle) was 7.87. The tissue to tissue ratio at 2 h (tumor/muscle, 0.037 MBq, 2 h post-injection, read-out: Uptake Ratio Tumor/Muscle) was 102, the tissue to tissue ratio at 4 h (tumor/muscle, 0.037 MBq, 4 h post-injection, read-out: Uptake Ratio Tumor/Muscle) was 50.2 and the tissue to tissue ratio at 24 h (tumor/muscle, 0.037 MBq, 24 h post-injection, read-out: Uptake Ratio Tumor/Muscle) was 27.2. It also gave a tissue to tissue ratio at 2 h (tumor/muscle, 2 h post-injection, NDP blockade (10 μg NDP-MSH co-injected), read-out: Uptake Ratio Tumor/Muscle) of 3.92, a tissue to tissue ratio at 2 h (tumor/muscle, 2 h post-injection, RGD blockade (3.5 μg RGD co-injected), read-out: Uptake Ratio Tumor/Muscle) of 60.3 and a dose excreted at 0.5 h (urine, 0.037 MBq, 0.5 h post-injection, read-out: Urine, Percent injected dose) of 43.1 ± 5.62%. It also gave a dose excreted at 2 h (urine, 0.037 MBq, 2 h post-injection, read-out: Urine, Percent injected dose (cleared through the urinary system)) of 67.8 ± 6.28%, a dose excreted at 4 h (urine, 0.037 MBq, 4 h post-injection, read-out: Urine, Percent injected dose) of 75.1 ± 3.61% and a dose excreted at 24 h (urine, 0.037 MBq, 24 h post-injection, read-out: Urine, Percent injected dose) of 88.3 ± 1.64%. For the same molecule, the dose excreted at 2 h (urine, 2 h post-injection, NDP blockade (10 μg NDP-MSH co-injected), read-out: Urine, Percent injected dose) was 76.8 ± 3.01% and the dose excreted at 2 h (urine, 2 h post-injection, RGD blockade (3.5 μg RGD co-injected), read-out: Urine, Percent injected dose) was 71.8 ± 5.07%.
